This is an account of results in patent publication US5952189A (priority 1997, dated 1999).

pIC50: −log10 of the molar value. Entries after “also recorded” stand apart in the source; their conditions may differ. Like-named read-outs stand apart in the source and are kept apart here.

In experiment [1] the test system is U937 cells. The experiment is described as follows: cells. The note with it: for Effect on DNA fragmentation induced by TNF or UV light: result in words. It is filed as cell-based, human.
The test system of experiment [2] is TNF-induced hepatocyte apoptosis. Description: TNF-induced hepatotoxicity in mice (serum transaminases). It is filed as in vivo, Balb/c mice. The protocol: In this example the concept that a protease inhibitor such as DK120 may attenuate inappropriate apoptosis that causes tissue damage in systemic inflammatory response syndrome (SIRS) was tested. TNF-induced hepatocyte apoptosis in mice was performed as described by Leist et al. ((1995) J. Immunol. 154:1778-1786). Briefly, Balb/c mice were injected ip with […] murine TNF combined with […] Actinomycin D/mouse. Twelve h later, mice were anesthetized and bled from the heart to measure serum transaminase levels, which are standard clinically used indicators of liver damage. Mice that were treated with protease inhibitors were injected ip with these compounds 30 min. prior to TNF. Alanine aminotransferase (ALT) and aspartate aminotransferase (AST) were assayed using a commercially available kit (Sigma). […] However, treatment with DK120 caused a doss-dependent decrease in serum transaminase levels. […] However, a drug that nonspecifically blocks all apoptotic pathways that normally function to maintain homeostasis may not be clinically desirable. Subsequent studies were performed to determine if DK120 could also suppress hepatocyte apoptosis in response to a different stimulus.
^1 Mice (2 for each treatment) were injected ip +/- DK120 30 min prio
to TNF and Actinomycin D. Twelve h later serum transaminase levels were
(§1) To further explore the specificity of DK120 attenuation of TNF-induced hepatotoxicity, several compounds were tested that were found previously not to inhibit apoptotic protease proteolytic activity as measured against a synthetic substrate (data not shown). […] Therefore, the protection mediated by DK120 is not a property of any boron-containing molecule.
^1 Mice (3 for each treatment) were injected ip +/- the inhibitors 30
min prior to TNF and Actinomycin D. Twelve h later serum transaminase

Experiment [3] deals with apoptotic protease. Description: Inhibition of apoptotic protease proteolytic activity against a synthetic substrate. The note with it: data not shown. It is filed as biochemical, human. As to the method:
Proteolytic activity was assayed using synthetic substrates selective for different known proteases. All assays were set up by adding 0.02 ml of sample (or known enzyme as a positive control) plus 0.18 ml of appropriate substrate dissolved in PBS PH 7.5 in triplicate in flat bottom microtiter plates, incubated for the indicated length of time at room temperature, and the OD at 405 nm measured using a plate reader.
Elastase-like activity was measured using N-methoxysuccinyl-ala-ala-pro-valp-nitroanilide (SEQ ID NO: 3) (MAAPV) at 0.25 mM as a substrate. For convenience and maximum sensitivity, these assays were routinely incubated 20 h to monitor protease purification. Under these conditions, the elastase dose response was linear up to a concentration of 6.0 μg/ml (OD of 1.0), see FIG. 3C. […] In order to quantitate the activity of the purified protease, identical assays were set up but kinetic readings of OD were taken every hour from 1-6 h. One unit of enzyme was calculated as the amount of enzyme that hydrolyzes 1.0 nmol substrate/h.
as §1

In experiment [4] the test system is apoptotic protease. As to conditions: unspecified protease; cited from earlier work.
The conditions of experiment [5]: Poe et al. 1991; cited from earlier work.
The test system of experiment [6] is 3T3. The experiment is described as follows: Inhibition of UV-induced DNA fragmentation in 3T3 cells. In kind it is cell-based, murine. As to conditions: UV 0.5 J/cm^2, 8 h, no inhibitor 38 ± 1.9. As to the method: (§2) To determine if these findings were unique to U937 or if other cell lines also require protease activity to undergo apoptosis, the effects of several inhibitors on apoptosis induced by UV light in the human mammary carcinoma, BT-20, the murine fibroblast cell line, 3T3, and the human myeloid leukemia, HL-60 were tested. For the BT-20 and 3T3 cells, target cells were pretreated for one hour (with or without inhibitors as indicated in the table) and exposed to UV light at 0.5 J/cm^2 and then incubated for eight hours prior to assessing DNA fragmentation. HL-60 cells were pretreated for one hour (with or without inhibitors as indicated in the table) and exposed to UV at 0.2 J/cm^2 and then incubated for two hours prior to assessing DNA fragmentation.
(§3) DNA fragmentation assays were carried out according to the protocol of Wright S. C., et al. (1,992) J. Cell. Biochem. 48, 344-355. Target cells were labeled with ^3 H-thymidine and plated in triplicate in flat bottom microtiter plates. Cells were incubated for the indicated length of time for each experiment in the presence of TNF or various inhibitors. In some experiments, cells were treated with UV light at 245 nm using a UV Crosslinker (Fisher Scientific). Assays were harvested and counted on a Packard matrix 96 beta counter. Percent DNA fragmentation was calculated as for the nuclear assay described in Example 3. In assays to test the effects of various inhibitors, the pH of extra wells containing assay buffer, target cells, and each inhibitor was always checked at the beginning and end of each assay to assure that the pH remained at 7.5.

Experiment [7] has as its system HL-60. The experiment is described as follows: Inhibition of UV-induced DNA fragmentation in HL-60 cells. It is filed as cell-based, human. As to conditions: UV 0.2 J/cm^2, 2 h, no inhibitor 49 ± 2.0. As to the method:
as §2
as §3, with “In assays to test the effects of various inhibitors, the pH of extra wells containing assay buffer, target cells, and each inhibitor was always checked at the beginning and end of each assay to assure that the pH remained at 7.5.” left out

Experiment [8] relates to isolated U937 nuclei. Description: DNA fragmentation assay using isolated U937 nuclei. It is filed as cell-based, human. The note with it: inhibitor 50 μM (FIG. 6B). As to the method: U937 cells were labeled with ^3 H-thymidine by culturing overnight with isotope at 0.5 μCi/ml. The cells were pelleted, washed once, and the cytoplasmic membrane lysed by resuspending the cells in assay buffer (50 mM Tris, 250 mM sucrose 10 mM MgSO4, pH 7.5) plus 0.02% NP-40. Nuclei were then pelleted and resuspended in assay buffer at 1×10^6 /ml. The assay was set up in triplicate in flat bottom microtiter plates under sterile conditions. Nuclei (0.05 ml) were mixed with 0.05 ml of sample diluted in 50 mM Tris pH 7.5 or buffer alone to determine total counts. Plates were incubated for 5 h at 37° C. and then harvested by the addition of 0.1 ml of harvesting buffer (10 mM Tris, 10 mM EDTA, 0.3% Triton X-100, pH 7.5). Plates were harvested by filtration onto glass fiber paper and counted on a Packard Matrix 96 beta counter. Percent DNA fragmentation was calculated as follows: […]

For experiment [9], the system named is U937 cells. Description: Visualization of DNA fragmentation in U937 cells by agarose gel electrophoresis. In kind it is cell-based, human. As to the method: In FIG. 2, U937 cells were pretreated with and without TPCK 10 μM for 30 min, exposed to UV light 0.15 J/cm^2, incubated another 2.5 h, then the DNA extracted and analyzed by agarose gel electrophoresis. Lane 1 of FIG. 2 contains molecular weight markers, lane 2 contains untreated U937, lane 3 contains U937 treated with TPCK, lane 4 contains U937 treated with UV light, lane 5 contains U937 treated with TPCK and UV light.
DNA fragmentation was carried out according to the procedure of Example 2. After the desired treatments, the cells were lysed and debris was removed by centrifugation at 13,000×g for 10 sec. DNA in the supernatant was ethanol precipitated after phenol extraction. Equivalent amounts of material from a fixed number of cells were loaded and electrophoresed on a 1.0% agarose slab gel. DNA was visualized by ethidium bromide staining.

Experiment [10] deals with HL-60 cells. As to conditions: Bruno et al. 1992; cited from earlier work.
Experiment [11] relates to BT-20. In kind it is cell-based, human. As to conditions: for % DNA fragmentation: BT-20, UV 0.5 J/cm^2, 8 h, no inhibitor 44 ± 3.6.
Experiment [12] deals with chymotrypsin-like enzymes. The note with it: cited from earlier work.

In the case of isopropylboronic acid [IBA], the “Inactive Compounds, Highest Concentration Tested (highest nontoxic concentration, inactive)” value in experiment [1] (U937 cells, TNF and UV light, compound inactive at this concentration) was determined as 20 µM. Moreover, the “Effect on DNA fragmentation induced by TNF or UV light” value in experiment [1] (U937 cells) is reported as “does not inhibit DNA fragmentation”. For the same molecule, the “Protection from TNF-induced hepatotoxicity” value in experiment [2] (Table 10, 10 mg/kg) was “does not protect from TNF-induced hepatotoxicity”. Also, the ALT in [2] (mouse, in vivo) is listed as 393 +/- 52 U/ml. Moreover, the “Inhibition of apoptotic protease proteolytic activity” value in experiment [3] was “no protease inhibitory activity”. Moreover, the “Protease inhibitory activity” value in [4] was “non-inhibitory; also recorded: devoid of protease inhibitory activity”.

With “human granzyme B: serine protease of cytotoxic lymphocyte granules”, the “Activity on methoxysuccinyl-ala-ala-pro-val-thiobenzyl ester” value in experiment [5] is “inactive”.

For the molecule `Cc1ccc(S(=O)(=O)N[C@@H](Cc2ccccc2)C(=O)CCl)cc1` [TPCK, N-1-tosylamide-2-phenylethylchloromethyl ketone], the “% DNA fragmentation” value came to 32 ± 1.1% in [6] (inhibitor 1 μM); 18 ± 0.8% in experiment [6] (inhibitor 5 μM); 19 ± 2.0% in experiment [7] (inhibitor 1 μM); 1 ± 2.3% in [7] (inhibitor 5 μM); 19 ± 5.5% in experiment [11] (inhibitor 1 μM); 0 ± 0% in experiment [11] (inhibitor 5 μM). Moreover, the “Inhibition of nuclear DNA fragmenting activity of protease from UV-treated cells” value in experiment [8] is “inhibited”. In addition, the “Effect on UV light-induced DNA fragmentation, agarose gel” value in experiment [9] (TPCK 10 μM 30 min, UV 0.15 J/cm^2, 2.5 h) was “completely abolished UV light-induced DNA fragmentation”. In addition, the “DNA fragments on agarose gel, compound alone” value in [9] (TPCK alone, no UV) was “no DNA fragments”. Moreover, in experiment [1] (Homo sapiens, U-937, read-out: IC50 (Active Concentration), TNF and UV-light induced apoptosis), the pIC50 is 5.70. Also, the “Concentration of maximum suppression of DNA fragmentation” value in experiment [1] (U937, TNF 1.0 ng/ml plus cycloheximide or UV 0.1 J/cm^2, 1 h pretreatment (FIG. 1)) was determined as 2.0 µM. The “Effect on DNA fragmentation induced by TNF or UV light” value in experiment [1] (U937 cells) is listed as “suppressed DNA fragmentation; also recorded: dose-dependently inhibit DNA fragmentation”. The “Effect on chemotherapeutic drug-induced apoptosis” value in [10] was “inhibits chemotherapeutic drug-induced apoptosis”. Besides, the “Effect on UV-induced DNA fragmentation” value in experiment [11] (summary of Table 2 (BT-20, 3T3, HL-60)) is “effectively blocked DNA fragmentation”. In addition, in experiment [12], the “Inhibition of chymotrypsin / chymotrypsin-like enzymes” value was “potent inhibitor of chymotrypsin-like enzymes”.
